Measurements: patent US11339136B2 (Novartis AG, priority 2016, dated 2022)

target: T1, hNLRP3 (Homo sapiens, UniProt Q96P20); assay: IL-1β production in PMA-differentiated THP-1 cells stimulated with gramicidin; format: cell-based; details: gramicidin 5 μM, IL-1β in supernatant, Table 1
T1 construct: THP-1 cells were purchased from the American Type Culture Collection; host or cells: THP-1 cells, PMA-differentiated
Method: Bioassay: IL-1β Production in PMA-Differentiated THP-1 Cells Stimulated with Gramicidin. Procedure 1:
Cell culture—THP-1 cells were purchased from the American Type Culture Collection and sub-cultured according to instructions from the supplier. Prior to experiments, cells were cultured in RPMI 1640 containing 10% heat inactivated FBS, penicillin (100 units/ml) and streptomycin (100 μg/ml), and maintained in log phase prior to experimental setup. Prior to the experiment THP-1 were treated with PMA (Phorbol 12-myristate 13-acetate) (10 μg/ml) for 24 hours. The day of the experiment the media was removed and attaching cells were treated with trypsin for 2 minutes, cells were then collected, washed with PBS (phosphate buffer saline), spin down, resuspended in 2% heat inactivated FBS with RPMI at a concentration of 1×10^6 cells/ml, and 100 ul was plated in a 96 well plate. Cells were incubated with compounds for 1 hours and then stimulated with Gramicidin (5 μM) (Enzo) for 2 hours. Cell free supernatant was collected and the production of IL-1β was evaluated by ELISA. Compounds were dissolved in dimethyl sulfoxide (DMSO) and added to the culture medium to achieve desired concentration (e.g. 100, 30, 10, 3, 1, 0.3 or 0.1 μM). A vehicle only control was run concurrently with each experiment. Final DMSO concentration was 1%.
THP-1 cells were purchased from the American Type Culture Collection and sub-cultured according to instructions from the supplier. Prior to experiments, cells were cultured in complete RPMI 1640 (containing 10% heat inactivated FBS, penicillin (100 units/ml) and streptomycin (100 μg/ml)), and maintained in log phase prior to experimental setup. Prior to the experiment THP-1 were treated with PMA (Phorbol 12-myristate 13-acetate) (20 ng/ml) for 16-18 hours. On the day of the experiment the media was removed and adherent cells were detached with trypsin for 5 minutes. Cells were then harvested, washed with complete RPMI 1640, spun down, resuspended in RPMI 1640 (containing 2% heat inactivated FBS, penicillin (100 units/ml) and streptomycin (100 μg/ml). The cells were plated in a 384-well plate at a density of 50,000 cells/well (final assay volume 50 μl). Compounds were dissolved in dimethyl sulfoxide (DMSO) and added to the culture medium to achieve desired concentration (e.g. 100, 33, 11, 3.7, 1.2, 0.41, 0.14, 0.046, 0.015, 0.0051, 0.0017 μM). Cells were incubated with compounds for 1 hour and then stimulated with gramicidin (5 μM) (Enzo) for 2 hours. Cell free supernatant was collected and the production of IL-1β was evaluated by HTRF (cisbio). A vehicle only control was run concurrently with each experiment. Final DMSO concentration was 0.38%.

T1 sequence (Q96P20 whole entry): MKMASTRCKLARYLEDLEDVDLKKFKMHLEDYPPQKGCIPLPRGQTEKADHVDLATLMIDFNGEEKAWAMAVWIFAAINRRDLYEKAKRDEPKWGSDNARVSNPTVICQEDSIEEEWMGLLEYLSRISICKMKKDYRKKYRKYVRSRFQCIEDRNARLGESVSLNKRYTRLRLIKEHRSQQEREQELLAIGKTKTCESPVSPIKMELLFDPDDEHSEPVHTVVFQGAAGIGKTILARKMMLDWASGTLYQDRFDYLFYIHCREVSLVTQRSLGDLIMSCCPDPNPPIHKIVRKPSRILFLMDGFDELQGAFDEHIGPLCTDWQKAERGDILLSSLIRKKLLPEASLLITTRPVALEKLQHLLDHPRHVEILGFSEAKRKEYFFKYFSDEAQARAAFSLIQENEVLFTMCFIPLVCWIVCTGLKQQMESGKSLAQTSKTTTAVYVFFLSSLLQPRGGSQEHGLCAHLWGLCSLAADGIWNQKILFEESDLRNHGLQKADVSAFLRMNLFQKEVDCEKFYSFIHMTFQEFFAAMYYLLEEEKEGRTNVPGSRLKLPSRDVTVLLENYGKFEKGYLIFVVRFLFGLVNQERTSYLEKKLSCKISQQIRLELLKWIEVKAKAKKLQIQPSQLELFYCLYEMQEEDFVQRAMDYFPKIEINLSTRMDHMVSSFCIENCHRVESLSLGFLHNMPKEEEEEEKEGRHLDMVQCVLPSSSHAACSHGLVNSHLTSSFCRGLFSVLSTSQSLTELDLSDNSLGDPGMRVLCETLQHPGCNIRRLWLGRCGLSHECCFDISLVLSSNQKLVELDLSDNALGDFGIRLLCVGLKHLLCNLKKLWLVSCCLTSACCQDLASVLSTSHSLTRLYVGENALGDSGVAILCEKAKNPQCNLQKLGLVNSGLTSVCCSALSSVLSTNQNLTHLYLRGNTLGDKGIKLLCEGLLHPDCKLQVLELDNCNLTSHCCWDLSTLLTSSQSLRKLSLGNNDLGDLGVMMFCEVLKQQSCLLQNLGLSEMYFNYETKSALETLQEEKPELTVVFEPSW

SMILES | IC50 [µM]
CC(C)c1cc(C#N)cc(C(C)C)c1NC(=O)NS(=O)(=O)c1cc(C(C)(C)O)co1 [Compound 104, N-(4-cyano-2,6-diisopropylphenyl-carbamoyl)-4-(2-hydroxypropan-2-yl)furan-2-sulfonamide] | < 1
CC(C)(O)c1coc(S(=O)(=O)NC(=O)Nc2c3c(c(C#N)c4c2CCC4)CCC3)c1 [Compound 105, N-(8-cyano-1,2,3,5,6,7-hexahydros-indacen-4-ylcarbamoyl)-4-(2-hydroxypropan-2-yl)furan-2-sulfonamide] | < 1
CC(C)c1cc(F)cc(C(C)C)c1NC(=O)NS(=O)(=O)c1cc(C(C)(C)O)co1 [Compound 115, N-(4-fluoro-2,6-diisopropylphenyl-carbamoyl)-4-(2-hydroxypropan-2-yl)furan-2-sulfonamide] | < 1
CC(C)c1cc(C(N)=O)cc(C(C)C)c1NC(=O)NS(=O)(=O)c1cc(C(C)(C)O)co1 [Compound 116, 4-(3-(4-(2-hydroxypropan-2-yl)furan-2-ylsulfonyl)ureido)-3,5-diisopropylbenz-amide] | 15 to 35

same assay, conditions: gramicidin 5 μM, IL-1β in supernatant, Table 2

SMILES | IC50 [µM]
CC(C)c1cncc(C(C)C)c1NC(=O)NS(=O)(=O)c1ncc(C(C)(C)O)s1 [Compound 138] | 1 to 5
CC(C)c1cc(F)cc(C(C)C)c1NC(=O)NS(=O)(=O)c1ncc(C(C)(C)O)s1 [Compound 139, N-(4-fluoro-2,6-diisopropylphenyl-carbamoyl)-5-(2-hydroxypropan-2-yl)thiazole-2-sulfonamide] | < 1
CC(C)c1ccc(Cl)c(C(C)C)c1NC(=O)NS(=O)(=O)c1nc(C(C)(C)O)cs1 [Compound 144, N-(3-chloro-2,6-diisopropylphenylcarbamoyl)-4-(2-hydroxypropan-2-yl) thiazole-2-sulfonamide] | 1 to 5
CC(C)c1ccc(F)c(C(C)C)c1NC(=O)NS(=O)(=O)c1nc(C(C)(C)O)cs1 [Compound 145, N-(3-fluoro-2,6-diisopropylphenylcarbamoyl)-4-(2-hydroxypropan-2-yl)thiazole-2-sulfonamide] | 1 to 5
CC(C)c1cc(C#N)cc(C(C)C)c1NC(=O)NS(=O)(=O)c1nc(C(C)(C)O)cs1 [Compound 146, N-(4-cyano-2,6-diisopropylphenylcarbamoyl)-4-(2-hydroxypropan-2-yl)thiazole-2-sulfonamide] | 1 to 5
CC(C)c1cc(Cl)cc(C(C)C)c1NC(=O)NS(=O)(=O)c1nc(C(C)(C)O)cs1 [Compound 147, N-(4-chloro-2,6-diisopropylphenylcarbamoyl)-4-(2-hydroxypropan-2-yl)thiazole-2-sulfonamide] | 1 to 5
CC(C)c1cc(F)cc(C(C)C)c1NC(=O)NS(=O)(=O)c1nc(C(C)(C)O)cs1 [Compound 148, N-(4-fluoro-2,6-diisopropylphenylcarbamoyl)-4-(2-hydroxypropan-2-yl) thiazole-2-sulfonamide] | 1 to 5
Cc1nc(S(=O)(=O)NC(=O)Nc2c(C(C)C)ccc(Cl)c2C(C)C)sc1C(C)(C)O [Compound 149, N-(3-chloro-2,6-diisopropylphenylcarbamoyl)-5-(2-hydroxypropan-2-yl)-4-methylthiazole-2-sulfonamide] | 15 to 35
Cc1nc(S(=O)(=O)NC(=O)Nc2c(C(C)C)ccc(F)c2C(C)C)sc1C(C)(C)O [Compound 150, N-(3-fluoro-2,6-diisopropylphenylcarbamoyl)-5-(2-hydroxypropan-2-yl)-4-methylthiazole-2-sulfonamide] | < 1
Cc1nc(S(=O)(=O)NC(=O)Nc2c(C(C)C)cc(Cl)cc2C(C)C)sc1C(C)(C)O [Compound 151, N-(4-chloro-2,6-diisopropylphenylcarbamoyl)-5-(2-hydroxypropan-2-yl)-4-methylthiazole-2-sulfonamide] | 1 to 5
Cc1nc(S(=O)(=O)NC(=O)Nc2c(C(C)C)cc(F)cc2C(C)C)sc1C(C)(C)O [Compound 152, N-(4-fluoro-2,6-diisopropylphenylcarbamoyl)-5-(2-hydroxypropan-2-yl)-4-methylthiazole-2-sulfonamide] | 5 to 15
Cc1sc(S(=O)(=O)NC(=O)Nc2c(C(C)C)ccc(Cl)c2C(C)C)cc1C(C)(C)O [Compound 153, N-(3-chloro-2,6-diisopropylphenyl-carbamoyl)-4-(2-hydroxypropan-2-yl)-5-methylthiophene-2-sulfonamide] | 5 to 15
Cc1sc(S(=O)(=O)NC(=O)Nc2c(C(C)C)ccc(F)c2C(C)C)cc1C(C)(C)O [Compound 154, N-(3-fluoro-2,6-diisopropylphenylcarbamoyl)-4-(2-hydroxypropan-2-yl)-5-methylthiophene-2-sulfonamide] | 1 to 5
Cc1nc(S(=O)(=O)NC(=O)Nc2c(C(C)C)cc(C#N)cc2C(C)C)sc1C(C)(C)O [Compound 155] | 5 to 15
Cc1sc(S(=O)(=O)NC(=O)Nc2c(C(C)C)cc(Cl)cc2C(C)C)cc1C(C)(C)O [Compound 156, N-(4-chloro-2,6-diisopropylphenyl-carbamoyl)-4-(2-hydroxypropan-2-yl)-5-methylthiophene-2-sulfonamide] | < 1
Cc1sc(S(=O)(=O)NC(=O)Nc2c(C(C)C)cc(F)cc2C(C)C)cc1C(C)(C)O [Compound 157, N-(4-fluoro-2,6-diisopropylphenyl-carbamoyl)-4-(2-hydroxypropan-2-yl)-5-methylthiophene-2-sulfonamide] | < 1
CCc1cc(C#N)cc(CC)c1NC(=O)NS(=O)(=O)c1ncc(C(C)(C)O)s1 [Compound 158, N-(4-cyano-2,6-diethylphenylcarbamoyl)-5-(2-hydroxypropan-2-yl)thiazole-2-sulfonamide] | 1 to 5
CCc1cc(C#N)cc(CC)c1NC(=O)NS(=O)(=O)c1cc(C(C)(C)O)cs1 [Compound 159, N-(4-cyano-2,6-diethylphenylcarbamoyl)-4-(2-hydroxypropan-2-yl)thiophene-2-sulfonamide] | 1 to 5
CCc1cc(F)cc(CC)c1NC(=O)NS(=O)(=O)c1cc(C(C)(C)O)cs1 [Compound 161, N-(2,6-diethyl-4-fluorophenylcarbamoyl)-4-(2-hydroxypropan-2-yl)thiophene-2-sulfonamide] | 1 to 5
Cc1sc(S(=O)(=O)NC(=O)Nc2c(C(C)C)cc(C#N)cc2C(C)C)cc1C(C)(C)O [Compound 162, N-(4-cyano-2,6-diisopropylphenyl-carbamoyl)-4-(2-hydroxypropan-2-yl)-5-methylthiophene-2-sulfonamide] | < 1
CCc1ccc2c(c1NC(=O)NS(=O)(=O)c1ncc(C(C)(C)O)s1)CCC2 [Compound 165, N-(5-ethyl-2,3-dihydro-1H-inden-4-ylcarbamoyl)-5-(2-hydroxypropan-2-yl) thiazole-2-sulfonamide] | 1 to 5
CCc1ccc2c(c1NC(=O)NS(=O)(=O)c1cc(C(C)(C)O)cs1)CCC2 [Compound 166, N-(5-ethyl-2,3-dihydro-1H-inden-4-ylcarbamoyl)-4-(2-hydroxypropan-2-yl)thiophene-2-sulfonamide] | 1 to 5
CC(C)c1ccc(F)c(C(C)C)c1NC(=O)NS(=O)(=O)c1ncc(C2(O)CCCCC2)s1 [Compound 167, N-(3-fluoro-2,6-diisopropylphenylcarbamoyl)-5-(1-hydroxycyclohexyl) thiazole-2-sulfonamide] | 5 to 15
CC(C)c1ccc(F)c(C(C)C)c1NC(=O)NS(=O)(=O)c1ncc(C2(O)CCCC2)s1 [Compound 168, N-(3-fluoro-2,6-diisopropylphenylcarbamoyl)-5-(1-hydroxycyclopentyl) thiazole-2-sulfonamide] | 5 to 15
CC(C)c1ccc(F)c(C(C)C)c1NC(=O)NS(=O)(=O)c1ncc(C2(O)CCC2)s1 [Compound 169, N-(3-fluoro-2,6-diisopropylphenylcarbamoyl)-5-(1-hydroxycyclobutyl) thiazole-2-sulfonamide] | 5 to 15
CCc1cc(Cl)cc(CC)c1NC(=O)NS(=O)(=O)c1ncc(C(C)(C)O)s1 [Compound 170, N-(4-chloro-2,6-diethylphenylcarbamoyl)-5-(2-hydroxypropan-2-yl) thiazole-2-sulfonamide] | 5 to 15
CCc1cc(Cl)cc(CC)c1NC(=O)NS(=O)(=O)c1cc(C(C)(C)O)cs1 [Compound 171, N-(4-chloro-2,6-diethylphenylcarbamoyl)-4-(2-hydroxypropan-2-yl) thiophene-2-sulfonamide] | 1 to 5
